# Source: article PMC6094047 (Antiviral Research, 2018)
# Several values for one entry are separate records, joined by “and”; a condition that tells them apart may be missing. Equal values may be shown once. Read-outs that look alike come from different tables or passages of the source.
# Tests used:
# [1] = tested on: A(H1N1)pdm09 virus neuraminidase (NA); type: biochemical, influenza A(H1N1)pdm09 virus
# [2] = tested on: B/Victoria-lineage virus neuraminidase (NA); type: biochemical, influenza B/Victoria-lineage virus
# [3] = tested on: A(H1N1)pdm09 virus neuraminidase (NA); conditions: cited from earlier work; for fold increases in IC50s compared to the mean IC50s: previously described A(H1N1)pdm09 virus with S110F AAS, ref Okomo-Adhiambo et al., 2014
# [4] = tested on: A(H3N2) virus neuraminidase (NA); type: biochemical, influenza A(H3N2) virus
# [5] = A(H1N1)pdm09 NA H275Y, ref WHO-AVWG NAI substitution table
Compound,IC50 fold-change compared to reference median IC50 values [1],Fold change in IC50 [2],inhibition phenotype associated with NA AAS (NI/RI/HRI) [3],Fold change in IC50 [4],inhibition phenotype (NI/RI/HRI) [4],"inhibition phenotype associated with NA AAS (NI/RI/HRI) [3, 5]",fold increases in IC50s compared to the mean IC50s [3]
[H]/N=C(\N)N[C@H]1C=C(C(=O)O)O[C@@H]([C@H](OC)[C@H](O)CO)[C@@H]1NC(C)=O [Laninamivir],1.5–3.4 (8) fold and 2.9 fold,1.8 fold and 2.2 fold,HRI (key: normal inhibition (NI) (type A viruses <10-fold; reduced inhibition (RI) (type A viruses 10- to 100-fold; highly reduced inhibition (HRI) (type A viruses >100-fold),–,–,–,–
CCOC(=O)C1=C[C@@H](OC(CC)CC)[C@H](NC(C)=O)[C@@H](N)C1 [Oseltamivir],–,4.1 fold and 2.9 fold,HRI (key: normal inhibition (NI) (type A viruses <10-fold; reduced inhibition (RI) (type A viruses 10- to 100-fold; highly reduced inhibition (HRI) (type A viruses >100-fold),14 fold,RI (key: normal inhibition (NI) (type A viruses <10-fold; reduced inhibition (RI) (type A viruses 10- to 100-fold; highly reduced inhibition (HRI) (type A viruses >100-fold),HRI (highly reduced inhibition (HRI) (type A viruses >100-fold),3–6 fold
CCC(CC)[C@H](NC(C)=O)[C@@H]1[C@H](O)[C@@H](C(=O)O)C[C@H]1N=C(N)N [Peramivir],–,30 fold and 26 fold,–,–,–,HRI (highly reduced inhibition (HRI) (type A viruses >100-fold),–
CC(=O)N[C@H]1[C@H]([C@H](O)[C@H](O)CO)OC(C(=O)O)=C[C@@H]1N=C(N)N [Zanamivir],–,1.4 fold and 2.0 fold,–,11 fold and 8.1 fold and 9.1 fold,RI (key: normal inhibition (NI) (type A viruses <10-fold; reduced inhibition (RI) (type A viruses 10- to 100-fold; highly reduced inhibition (HRI) (type A viruses >100-fold),–,3–6 fold
